Data reported in US10906906B2, “Organic compounds” (INTRA-CELLULAR THERAPIES, INC., priority 2016, dated 2021).
pIC50: −log10 of the molar value.

Molecular target: μ (MOP) (h) receptor (Homo sapiens, UniProt P35372)
Experiment: Cellular functional assay, μ (MOP) (h) antagonist effect (cAMP, HTRF)
Type: cell-based
Settings: human recombinant (CHO cells)
Method: The compounds are tested at several concentrations to determine their IC50 or EC50. Cellular agonist effects are calculated as percent of control response to a known reference agonist for each target and cellular antagonist effect is calculated as a percent inhibition of control reference agonist response for each target. The following assay is performed to determine the effect of the Compound of Formula II-B on the μ (MOP) (h) receptor: [table] The results are expressed as a percent of control agonist response: and as a percent inhibition of control agonist response: obtained in the presence of the Compound of Formula II-B or II-C. […] For the antagonists, the apparent dissociation constants (KB) are calculated using the modified Cheng Prusoff equation: [formula] where A=concentration of reference agonist in the assay, and E[…]=EC50 value of the reference agonist.

μ (MOP) (h) receptor, sequence (P35372 whole entry): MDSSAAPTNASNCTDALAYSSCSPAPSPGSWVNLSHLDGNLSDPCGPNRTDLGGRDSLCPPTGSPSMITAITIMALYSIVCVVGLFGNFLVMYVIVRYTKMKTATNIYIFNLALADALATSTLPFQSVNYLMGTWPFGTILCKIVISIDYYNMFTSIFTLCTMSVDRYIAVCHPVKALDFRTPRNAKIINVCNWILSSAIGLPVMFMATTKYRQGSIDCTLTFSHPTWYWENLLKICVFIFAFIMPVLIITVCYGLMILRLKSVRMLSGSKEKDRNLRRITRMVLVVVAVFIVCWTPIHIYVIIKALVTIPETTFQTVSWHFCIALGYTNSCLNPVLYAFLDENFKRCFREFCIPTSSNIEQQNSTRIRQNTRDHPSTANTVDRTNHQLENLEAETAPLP

pIC50 (DAMGO (20 nM) stimulus, cAMP, 10 min @ 37° C.)	Kb (modified Cheng Prusoff equation, DAMGO (20 nM), read-out: μ (MOP) (h) (antagonist effect) KB (apparent dissociation constant)) [nM]	pIC50 (unit inferred, highest concentration tested, DAMGO (20 nM))	Structure (SMILES)
5.89	140	–	CN1C(=O)CN2c3c(cccc31)[C@@H]1CN(CCCc3n[nH]c4cc(F)ccc34)CC[C@@H]12 [Formula II-B]
–	–	< 5.00	Fc1ccc2c(CCCN3CC[C@H]4[C@@H](C3)c3cccc5c3N4CCN5)n[nH]c2c1 [Formula II-C]
